Results reported in article PMC4529334, “Activity of second-generation ALK inhibitors against crizotinib-resistant mutants in an NPM-ALK model compared to EML4-ALK” (Cancer Medicine, 2015).
Values belong to the compound of their own block, whether it stands above or below them.

Legend:
EML4-ALK (EA WT) [1] = system: T1, EML4-ALK (EA WT); assay: Ba/F3 proliferation, [3H]-thymidine incorporation; assay type: cell-based, Homo sapiens; conditions: […] °C, no IL-3, ALK-dependent cell growth, parental Ba/F3 as control
T1 construct: EML4-ALK fusion (EML4 exon 6 to ALK exon 20) in pCDH-CMV-MCS-EF1-Puro, stably expressed in murine Ba/F3 cells (IL-3-independent); single fused polypeptide; with Echinoderm microtubule-associated protein-like 4
Description: Ba/F3 proliferation, [3H]-thymidine incorporation on EML4-ALK (EA WT)

NPM-ALK (NA WT) [2] = conditions: […] h, […] °C, no IL-3; ALK-dependent cell growth; stated gain
Description: Ba/F3 proliferation, [3H]-thymidine incorporation on NPM-ALK (NA WT)

NPM-ALK (NA WT) [3] = system: T2, NPM-ALK (NA WT); assay: Ba/F3 proliferation, [3H]-thymidine incorporation; assay type: cell-based, Homo sapiens; conditions: […] °C, no IL-3, ALK-dependent cell growth, parental Ba/F3 as control
T2 construct: NPM-ALK fusion from t(2;5)(p23;q35), pcDNA3.0, stably expressed in murine Ba/F3 cells (IL-3-independent); single fused polypeptide NPM1 N-terminal part + ALK C-terminal part with kinase domain; with Nucleophosmin

NPM-ALK (NA WT) [4] = system: T2, NPM-ALK (NA WT); assay: Ba/F3 proliferation, [3H]-thymidine incorporation; assay type: cell-based, Homo sapiens; conditions: […] °C, no IL-3, ALK-dependent cell growth, stated gain
NPM-ALK (NA WT) [5] = system: T2, NPM-ALK (NA WT); assay: Ba/F3 proliferation, [3H]-thymidine incorporation; assay type: cell-based, Homo sapiens; conditions: […] °C, no IL-3, ALK-dependent cell growth, parental Ba/F3 as control; remark: listed apart in the source
EML4-ALK (EA WT) [6] = system: T1, EML4-ALK (EA WT); assay: Ba/F3 proliferation, [3H]-thymidine incorporation; assay type: cell-based, Homo sapiens; conditions: […] °C, no IL-3, ALK-dependent cell growth, parental Ba/F3 as control; remark: listed apart in the source
EML4-ALK (EA WT) [7] = conditions: […] h, […] °C, no IL-3; ALK-dependent cell growth; stated gain

IC50 (μmol/L) / ASP3026 (NPM-ALK (NA WT) [4]): 2.763 µmol/L
SMILES: COc1cc(N2CCC(N3CCN(C)CC3)CC2)ccc1Nc1ncnc(Nc2ccccc2S(=O)(=O)C(C)C)n1 [ASP3026]
IC50 (μmol/L) / ASP3026 (NPM-ALK (NA WT) [5]): 0.084 µmol/L
IC50 (μmol/L) / ASP3026 (EML4-ALK (EA WT) [6]): 0.056 µmol/L

SMILES: COc1cc(N2CCC(N3CCN(C)CC3)CC2)ccc1Nc1ncc(Cl)c(Nc2ccccc2P(C)(C)=O)n1 [AP26113]
IC50 (μmol/L) / AP26113 (EML4-ALK (EA WT) [7]): 0.021 µmol/L
